According to PubChem BioAssay (NCI):
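Compound exposure: 48 hours, 5 concentrations, 96-well plates. TGI denotes the concentration required for complete inhibition of growth.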

Legend:
Experiment in all cases: inhibition of tumour cell growth, NCI panel, 48 h
MALME-3M melanoma = tested on: MALME-3M melanoma
EKVX NSCLC = tested on: EKVX NSCLC
HCT-15 colon = tested on: HCT-15 colon
A549 NSCLC = tested on: A549 NSCLC
MDA-MB-231 breast = tested on: MDA-MB-231 breast
SK-MEL-28 melanoma = tested on: SK-MEL-28 melanoma
CAKI-1 renal = tested on: CAKI-1 renal
MDA-MB-435 = tested on: MDA-MB-435
UACC-62 melanoma = tested on: UACC-62 melanoma
NCI-H23 lung = tested on: NCI-H23 lung
SK-MEL-2 melanoma = tested on: SK-MEL-2 melanoma

## OCC(O)C(O)C(O)C(O)/C=N/Nc1nc(O)c(/C=C2\C=Nc3ccccc32)[nH]1 (configuration not stated)
MALME-3M melanoma
  TGI: > 100 µM
EKVX NSCLC
  TGI: > 100 µM
HCT-15 colon
  TGI: > 100 µM
A549 NSCLC
  TGI: > 100 µM
MDA-MB-231 breast
  TGI: > 100 µM
SK-MEL-28 melanoma
  TGI: > 100 µM
CAKI-1 renal
  TGI: > 100 µM
MDA-MB-435
  TGI: > 100 µM
UACC-62 melanoma
  TGI: > 100 µM
NCI-H23 lung
  TGI: > 100 µM
SK-MEL-2 melanoma
  TGI: 97.7 µM

## CN(C)c1ccc(/C=c2/c3cc([N+](=O)[O-])ccc3n3c2cc(-c2ccccc2)[n+]3C)cc1
MALME-3M melanoma
  TGI: 1.18 µM
EKVX NSCLC
  TGI: 7.81 µM
HCT-15 colon
  TGI: 42.1 µM
A549 NSCLC
  TGI: 11.7 µM
MDA-MB-231 breast
  TGI: 2.75 µM
SK-MEL-28 melanoma
  TGI: 3.09 µM
CAKI-1 renal
  TGI: 23.4 µM
MDA-MB-435
  TGI: 1.84 µM
UACC-62 melanoma
  TGI: 1.87 µM
NCI-H23 lung
  TGI: > 24.2 µM
SK-MEL-2 melanoma
  TGI: 1.68 µM

## CC1CN=C(c2ccc(COc3ccc(C4=NCC(C)N4)cc3)cc2)N1 (configuration not stated)
MALME-3M melanoma
  TGI: > 100 µM
EKVX NSCLC
  TGI: > 100 µM
HCT-15 colon
  TGI: > 100 µM
A549 NSCLC
  TGI: > 100 µM
MDA-MB-231 breast
  TGI: > 100 µM
SK-MEL-28 melanoma
  TGI: > 100 µM
CAKI-1 renal
  TGI: > 100 µM
MDA-MB-435
  TGI: > 100 µM
UACC-62 melanoma
  TGI: > 100 µM
NCI-H23 lung
  TGI: > 100 µM
SK-MEL-2 melanoma
  TGI: 58.4 µM

## COC(=O)[C@H](CCSC)NC(=O)c1ccc(CNC(=O)/C(C)=C/c2ccccc2)cc1
MALME-3M melanoma
  TGI: 29.5 µM
EKVX NSCLC
  TGI: > 100 µM
HCT-15 colon
  TGI: > 100 µM
A549 NSCLC
  TGI: > 100 µM
MDA-MB-231 breast
  TGI: > 100 µM
SK-MEL-28 melanoma
  TGI: 64.7 µM
CAKI-1 renal
  TGI: > 100 µM
MDA-MB-435
  TGI: > 100 µM
UACC-62 melanoma
  TGI: > 100 µM
NCI-H23 lung
  TGI: > 100 µM
SK-MEL-2 melanoma
  TGI: 66.3 µM

## CCCC1(N)CC(OC)OC(C)C1O (configuration not stated)
MALME-3M melanoma
  TGI: > 100 µM
EKVX NSCLC
  TGI: > 100 µM
HCT-15 colon
  TGI: > 100 µM
A549 NSCLC
  TGI: > 100 µM
MDA-MB-231 breast
  TGI: > 100 µM
SK-MEL-28 melanoma
  TGI: > 100 µM
CAKI-1 renal
  TGI: > 100 µM
MDA-MB-435
  TGI: > 100 µM
UACC-62 melanoma
  TGI: > 100 µM
NCI-H23 lung
  TGI: > 100 µM
SK-MEL-2 melanoma
  TGI: > 100 µM

## COc1ccc(C[C@@H]2OC3(C=CC(=O)C=C3)O[C@H]2Cc2ccc(OC)cc2)cc1
MALME-3M melanoma
  TGI: 4.22 µM
EKVX NSCLC
  TGI: 3.7 µM
HCT-15 colon
  TGI: 0.77 µM
A549 NSCLC
  TGI: 11.2 µM
MDA-MB-231 breast
  TGI: 4.15 µM
SK-MEL-28 melanoma
  TGI: 3.13 µM
CAKI-1 renal
  TGI: 1.38 µM
MDA-MB-435
  TGI: 3.5 µM
UACC-62 melanoma
  TGI: 3.7 µM
NCI-H23 lung
  TGI: 3.53 µM
SK-MEL-2 melanoma
  TGI: 3.41 µM

## COc1cc(C=O)cc(C=Nc2ccc(S(N)(=O)=O)cc2)c1O
MALME-3M melanoma
  TGI: 7.78 µM
EKVX NSCLC
  TGI: > 100 µM
HCT-15 colon
  TGI: > 100 µM
A549 NSCLC
  TGI: > 100 µM
MDA-MB-231 breast
  TGI: 76.4 µM
SK-MEL-28 melanoma
  TGI: 99 µM
CAKI-1 renal
  TGI: 49.3 µM
MDA-MB-435
  TGI: 49 µM
UACC-62 melanoma
  TGI: > 100 µM
NCI-H23 lung
  TGI: > 100 µM
SK-MEL-2 melanoma
  TGI: 20.8 µM

## COP(C)(=O)C(Cc1c[nH]c2ccccc12)NC(=O)OCc1ccccc1 (configuration not stated)
MALME-3M melanoma
  TGI: > 100 µM
EKVX NSCLC
  TGI: > 100 µM
HCT-15 colon
  TGI: > 100 µM
A549 NSCLC
  TGI: > 100 µM
MDA-MB-231 breast
  TGI: > 100 µM
SK-MEL-28 melanoma
  TGI: > 100 µM
CAKI-1 renal
  TGI: > 100 µM
MDA-MB-435
  TGI: > 100 µM
UACC-62 melanoma
  TGI: > 100 µM
NCI-H23 lung
  TGI: > 100 µM
SK-MEL-2 melanoma
  TGI: > 100 µM

## C#CCCCC(=O)N(C(=O)CS(=O)CC)c1ccccc1 (configuration not stated)
MALME-3M melanoma
  TGI: > 100 µM
EKVX NSCLC
  TGI: > 100 µM
HCT-15 colon
  TGI: > 100 µM
A549 NSCLC
  TGI: > 100 µM
MDA-MB-231 breast
  TGI: > 100 µM
SK-MEL-28 melanoma
  TGI: > 100 µM
CAKI-1 renal
  TGI: > 100 µM
MDA-MB-435
  TGI: > 100 µM
UACC-62 melanoma
  TGI: > 100 µM
NCI-H23 lung
  TGI: > 100 µM
SK-MEL-2 melanoma
  TGI: > 100 µM

## C=CC(Br)(CBr)CCC(Br)C(C)C (configuration not stated)
MALME-3M melanoma
  TGI: 28.1 µM
EKVX NSCLC
  TGI: 32.3 µM
HCT-15 colon
  TGI: 17.9 µM
A549 NSCLC
  TGI: 28.5 µM
MDA-MB-231 breast
  TGI: 10.3 µM
SK-MEL-28 melanoma
  TGI: 16.8 µM
CAKI-1 renal
  TGI: 16.3 µM
MDA-MB-435
  TGI: 33.5 µM
UACC-62 melanoma
  TGI: 12.5 µM
NCI-H23 lung
  TGI: 20.8 µM
SK-MEL-2 melanoma
  TGI: 12.8 µM

## COc1ccccc1NS(=O)(=O)c1ccc2ncn(NS(=O)(=O)c3ccc(Cl)cc3)c(=O)c2c1
MALME-3M melanoma
  TGI: > 100 µM
EKVX NSCLC
  TGI: > 100 µM
HCT-15 colon
  TGI: > 100 µM
A549 NSCLC
  TGI: > 100 µM
MDA-MB-231 breast
  TGI: > 100 µM
SK-MEL-28 melanoma
  TGI: > 100 µM
CAKI-1 renal
  TGI: > 100 µM
MDA-MB-435
  TGI: > 100 µM
UACC-62 melanoma
  TGI: > 100 µM
NCI-H23 lung
  TGI: > 100 µM
SK-MEL-2 melanoma
  TGI: > 100 µM

## Cc1cc(O)c(C(C)C)cc1N=Cc1ccccc1O
MALME-3M melanoma
  TGI: 28.4 µM
EKVX NSCLC
  TGI: 26.8 µM
HCT-15 colon
  TGI: > 59.5 µM
A549 NSCLC
  TGI: 43 µM
MDA-MB-231 breast
  TGI: 3.59 µM
SK-MEL-28 melanoma
  TGI: 31.4 µM
CAKI-1 renal
  TGI: 25.4 µM
MDA-MB-435
  TGI: 4.37 µM
UACC-62 melanoma
  TGI: 21.7 µM
NCI-H23 lung
  TGI: 37.9 µM
SK-MEL-2 melanoma
  TGI: 25.4 µM

## Brc1cccc[n+]1-c1ccc2cc(-[n+]3ccccc3Br)ccc2c1
MALME-3M melanoma
  TGI: 72.7 µM
EKVX NSCLC
  TGI: > 100 µM
HCT-15 colon
  TGI: > 100 µM
A549 NSCLC
  TGI: > 100 µM
MDA-MB-231 breast
  TGI: 85.6 µM
SK-MEL-28 melanoma
  TGI: > 100 µM
CAKI-1 renal
  TGI: > 100 µM
MDA-MB-435
  TGI: > 100 µM
UACC-62 melanoma
  TGI: > 100 µM
NCI-H23 lung
  TGI: > 100 µM
SK-MEL-2 melanoma
  TGI: > 100 µM

## COc1ccccc1NCC(=O)Nn1c(C)nc2ccc(S(=O)(=O)Nc3ccccc3OC)cc2c1=O
MALME-3M melanoma
  TGI: > 100 µM
EKVX NSCLC
  TGI: > 100 µM
HCT-15 colon
  TGI: > 100 µM
A549 NSCLC
  TGI: > 100 µM
MDA-MB-231 breast
  TGI: > 100 µM
SK-MEL-28 melanoma
  TGI: > 100 µM
CAKI-1 renal
  TGI: > 100 µM
MDA-MB-435
  TGI: 85.2 µM
UACC-62 melanoma
  TGI: > 100 µM
NCI-H23 lung
  TGI: > 100 µM
SK-MEL-2 melanoma
  TGI: > 100 µM

## CCCCCCCCCCCCCCCCP(=O)([O-])OCC[N+](C)(C)C
MALME-3M melanoma
  TGI: 36.6 µM
EKVX NSCLC
  TGI: 39.1 µM
HCT-15 colon
  TGI: 16.7 µM
A549 NSCLC
  TGI: 32.9 µM
MDA-MB-231 breast
  TGI: 35.2 µM
SK-MEL-28 melanoma
  TGI: 33.8 µM
CAKI-1 renal
  TGI: 25.4 µM
MDA-MB-435
  TGI: 34.2 µM
UACC-62 melanoma
  TGI: 29.3 µM
NCI-H23 lung
  TGI: 40 µM
SK-MEL-2 melanoma
  TGI: 31.5 µM

## Nc1ccc(-c2nc3ccccc3s2)cc1Br
MALME-3M melanoma
  TGI: > 100 µM
EKVX NSCLC
  TGI: > 100 µM
HCT-15 colon
  TGI: > 100 µM
A549 NSCLC
  TGI: > 100 µM
MDA-MB-231 breast
  TGI: > 100 µM
SK-MEL-28 melanoma
  TGI: > 100 µM
CAKI-1 renal
  TGI: > 100 µM
MDA-MB-435
  TGI: > 100 µM
UACC-62 melanoma
  TGI: > 100 µM
NCI-H23 lung
  TGI: > 100 µM
SK-MEL-2 melanoma
  TGI: > 100 µM

## CC(=O)N(CN1C(=O)CCC1C(=O)O)c1ccccc1Cl (configuration not stated)
MALME-3M melanoma
  TGI: > 100 µM
EKVX NSCLC
  TGI: > 100 µM
HCT-15 colon
  TGI: > 100 µM
A549 NSCLC
  TGI: > 100 µM
MDA-MB-231 breast
  TGI: > 100 µM
SK-MEL-28 melanoma
  TGI: > 100 µM
CAKI-1 renal
  TGI: > 100 µM
MDA-MB-435
  TGI: > 100 µM
UACC-62 melanoma
  TGI: > 100 µM
NCI-H23 lung
  TGI: > 100 µM
SK-MEL-2 melanoma
  TGI: > 100 µM
